According to PubChem BioAssay (NCI):
“And” between values parts separate entries of the source, which are not always exact repeats. Equal values may be shown once.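 Five compound concentrations were applied to cells in 96-well plates for 48 hours; endpoints were derived by simple linear interpolation of the resulting dose-response curve. GI50 marks 50% less growth. TGI denotes the concentration required for complete inhibition of growth.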

Experiments:
Test in all cases: DTP human tumour cell line panel, 48 h
786-0 renal = tested on: 786-0 renal
ACHN renal = tested on: ACHN renal
NCI-H23 lung = tested on: NCI-H23 lung
SN12C renal = tested on: SN12C renal
TK-10 renal = tested on: TK-10 renal
U251 CNS = tested on: U251 CNS
UACC-62 melanoma = tested on: UACC-62 melanoma
BT-549 breast = tested on: BT-549 breast
DU-145 prostate = tested on: DU-145 prostate
SR leukemia = tested on: SR leukemia

Compound | TGI (786-0 renal) [µM] | TGI (ACHN renal) [µM] | TGI (NCI-H23 lung) | TGI (SN12C renal) | TGI (TK-10 renal) | TGI (U251 CNS) [µM] | TGI (UACC-62 melanoma) | GI50 (786-0 renal) [µM] | GI50 (ACHN renal) [µM] | GI50 (BT-549 breast) [µM] | TGI (BT-549 breast) [µM] | GI50 (DU-145 prostate) [µM] | TGI (DU-145 prostate) [µM] | GI50 (SN12C renal) [µM] | GI50 (SR leukemia) [µM] | TGI (SR leukemia) [µM] | GI50 (U251 CNS) [µM] | GI50 (UACC-62 melanoma) [µM] | GI50 (NCI-H23 lung) [µM] | GI50 (TK-10 renal) [µM]
O=C(Cc1nc2ccccc2s1)C(=O)Nc1ccccc1C(F)(F)F | > 100 | > 100 | > 100 µM | > 100 µM | > 100 µM | > 100 | > 100 µM | – | – | – | – | – | – | – | – | – | – | – | – | –
O=C(/C=C\c1ccc(Cl)c(Cl)c1)c1ccccc1 | 21.6 | 20.5 | – | 19.9 µM | – | 15.6 | 21.6 µM | 8.07 | 7.65 | 9.85 | 22 | 10.1 | 21.9 | 6.77 | 2.75 | 9.22 | 3.34 | 9.33 | – | –
CNCc1ccc(C)c(NC(=O)c2ccc(Nc3nc(-c4ccccc4)c4ccccc4n3)cc2)c1 | 3.3 | 3.82 | 3.71 µM | – | 4.56 µM | 2.96 | – | 1.76 | 2.01 | 1.84 | 3.37 | 2.88 | 7.65 | – | 1.79 | 4.86 | 1.54 | – | 1.87 | 2.12
O=C1OC2C(O)COC2(OCc2c[nH]c3ccccc23)C1O (stereo unspecified) (tested in a mixture with another compound) | > 100 | – | > 100 µM | > 100 µM | > 100 µM | > 100 | > 100 µM | – | – | – | – | – | – | – | – | > 100 | – | – | – | –
CCOC(=O)c1ccccc1NC(c1ccccc1)c1ccc2cccnc2c1O (stereo unspecified) | > 100 | > 100 | > 100 µM | > 100 µM | > 100 µM | 16.5 | – | 3.39 | 3.07 | 4.25 | 16.7 | 5.94 | > 100 | 3.83 | 2.02 | 10.3 | 2.75 | – | 4.22 | 5.52
COc1ccc(C2CC(c3cccc(Nc4ccnc5cc(Cl)ccc45)c3)=NN2c2ccc(Cl)cc2)cc1 (stereo unspecified) | 44 | 90.6 | > 100 µM | > 100 µM | > 100 µM | – | 13.3 µM | 2.94 | 4.63 | 2.67 | 26.6 | 28.4 | > 100 | 13 | 4.29 | 32.5 | – | 0.601 | 17.5 | 12.9
Cc1nc2c(=O)n(C)c(=O)nc-2n(-c2ccc(Cl)cc2)c1C | > 100 | > 100 | > 100 µM | > 100 µM | > 100 µM | > 100 | > 100 µM | – | – | – | – | – | – | – | – | – | – | – | – | –
O=[N+]([O-])c1ccc(-c2ccc(C3=Nn4c(nnc4-c4ccc(Cl)cc4)SC3)o2)cc1 | > 100 | > 100 | > 85.9 µM | > 100 µM | 53.4 µM | > 70.7 | > 100 µM | – | – | – | – | – | – | – | – | > 100 | – | – | – | –
O=C1c2ccccc2CC1C1(O)C(=O)Nc2c(Cl)cc(Cl)cc21 (stereo unspecified) | > 100 | > 100 | > 100 µM | > 100 µM | > 100 µM | > 100 | – | – | – | – | – | – | – | – | – | – | – | – | – | –
S=C(N/N=C/c1ccccc1)NC1CC(c2ccccc2)Oc2ccccc21 (stereo unspecified) | > 100 | – | > 100 µM | > 100 µM | – | > 100 | > 100 µM | – | – | – | – | – | – | – | – | > 100 | – | – | – | –
O=S(O)CCCSSCCCCSSCCCS(=O)O | > 100 | > 100 | > 100 µM | > 100 µM | > 100 µM | > 100 | > 100 µM | – | – | – | – | – | – | – | – | – | – | – | – | –
CC1CCCC2(O1)OC1CC(=O)OC1C1=C2C(=O)c2ccccc2C1=O (stereo unspecified) | 3.85 | 15 | 19.7 µM | 4.77 µM | 21 µM | 32.5 | 5.1 µM | – | – | – | – | – | – | – | – | – | – | – | – | –
CC(=O)OC12CCCCC1C1(CCCC1)NC2=O (stereo unspecified) | > 100 | > 100 | > 100 µM | > 100 µM | > 100 µM | > 100 | > 100 µM | – | – | – | – | – | – | – | – | > 100 | – | – | – | –
CC(=O)NC(Cc1ccccc1)C(=S)N1CCCC1 (stereo unspecified) | > 100 | > 100 | > 100 µM | > 100 µM | > 100 µM | > 100 | > 100 µM | – | – | – | – | – | – | – | – | – | – | – | – | –
CCN(CC)CC(C(=O)Nc1c(C)cccc1C)/C(C)=N/NC(N)=S (stereo unspecified) | > 100 | > 100 | > 100 µM | – | > 100 µM | > 100 | > 100 µM | – | – | – | – | – | – | – | – | – | – | – | – | –
N#Cc1c(-c2ccc(Cl)cc2)n([O-])c2ccccc2[n+]1=O | 25 | 16.8 | 31.3 µM | 37.2 µM | 24.6 µM | 17.1 | 33.6 µM | 12.5 | 4.2 | 23.2 | 52.3 | 18.1 | 32.8 | 15.5 | – | – | 4.37 | 17.2 | 16.2 | 11.7
O=c1[nH]c2cccccc-2c1-c1nc2ccccc2[nH]1 | 41 | 51.6 | > 100 µM | > 100 µM | > 100 µM | 68 | 44.9 µM | – | – | – | – | – | – | – | – | > 100 | – | – | – | –
Cc1ccc(S(=O)(=O)NC(CCCCN)C(=O)CCl)cc1 (stereo unspecified) | > 100 | > 100 | > 100 µM | 77.2 µM | > 100 µM | > 100 | > 100 µM | 73.2 | 92.7 | 27.6 | 89.6 | 81.2 | > 100 | 35.6 | – | – | 29 | 58.3 | > 100 | 90.5
CC(C)(O)C1CC(=O)C(C)(C2C(O)CC3(C)C4CC=C5C(CCC(O)C5(C)C)C4(C)C(=O)CC23C)O1 (stereo unspecified) | > 100 | > 100 | > 100 µM | > 100 µM | > 100 µM | > 100 | > 100 µM | – | – | – | > 100 | – | > 100 | – | – | – | – | – | – | –
COC(=O)c1c(OC(=O)c2ccccc2)noc1CC(=O)OC1C=CCCC1 (stereo unspecified) | > 100 | > 100 | – | > 100 µM | > 100 µM | > 100 | > 100 µM | – | – | – | – | – | – | – | – | > 100 | – | – | – | –
COc1cccc2c1C(=N)c1c(O)c3c(c(O)c1C2=O)C[C@@](O)(C(C)=O)C[C@@H]3OC1CC(N)C(O)C(C)O1 (stereo partly specified) | – | – | 0.607 µM and 1.62 µM and 1.2 µM | 1.28 µM and 1.92 µM and 2.23 µM | 3.7 µM and 2.02 µM | – | 1.61 µM and 1.9 µM and 2.61 µM | 0.0766 | 0.472 | 1.66 | 16.2 | 0.018 | 0.0618 | – | 0.0196 | – | – | – | – | 0.234
